Assay results taken from US12643881B2, “Bicyclic amine CDK12 inhibitors” (Incyte Corporation, priority 2021, dated 2026).

molecular target: T1, CDK12 complexed with Cyclin K (Homo sapiens, UniProt Q9NYV4); experiment: Alternative CDK Enzymatic Assays (HTRF, pre-incubation with compounds and 1 mM ATP), Example A2; format: biochemical; conditions: enzyme pre-incubated with compounds and 1 mM ATP for 60 minutes; reaction 120 minutes at 25° C.
T1 construct: GST (N)
Text: Example A2. Alternative CDK Enzymatic Assays
The following activity of the CDK enzymes in complex with their respective cyclins we assayed: CDK1 complexed with Cyclin B1; CDK2 complexed with Cyclin E1; CDK4 complexed with Cyclin D1; CDK6 complexed with Cyclin D1; CDK6 complexed with Cyclin D3; CDK9 complexed with Cyclin T1; CDK7 complexed with Cyclin H/MAT1; CDK2 complexed with Cyclin A2; CDK5 complexed with p35; CDK12 complexed with Cyclin K; CDK13 complexed with Cyclin K. These in vitro enzyme activity are assayed using homogeneous time-resolved energy transfer (HTRF), which measures phosphorylation of a peptide substrate. The LANCER Ultra kinase assay (PerkinElmer) uses a ULight™-labeled EIF4E-binding protein 1 (THR37/46) peptide (DYSTTPGGTLFSTTPGTRI (SEQ ID NO: 1)) substrate and a Europium-labeled anti-phospho-4E-BP1 antibody (CDK2, CDK1, CDK4, CDK6, CDK9, CDK12, CDK13) or ULight™-labeled Myelin Basic Protein peptide (VTPRTPPP (SEQ ID NO: 2)) substrate and a Europium-labeled anti-phospho-MBP antibody (CDK7). Each CDK enzyme activity assays utilized human CDK co-expressed as N-terminal GST-tagged protein with its full length cyclin partner using a baculovirus expression system.
Enzyme was pre-incubated with compounds and 1 mM ATP for 60 minutes (CDK 1, 2, 4, 6, 9, 7, 12, 13) prior to the addition of ATP and Ulight-peptide (1 mM and 50 nM final, respectively), in assay buffer containing 50 mM HEPES pH 7.5, 1 mM EGTA, 10 mM MgCl2, 2 mM DTT, 0.05 mg/mL BSA, and 0.01% Tween 20. The reaction was then incubated for 120 minutes at 25° C. incubator. The reactions were stopped by the addition of EDTA and Europium labeled antibody, for a final concentration of 15 mM and 0.5-1.5 nM, respectively. HTRF signals were read after 15-120 minutes. A ratio of fluorescence transferred to the labeled substrate (665 nm) relative to fluorescence of the Europium donor (620 nm) represents the extent of phosphorylation. Ratios for treated wells were normalized to DMSO only (100% activity) and no enzyme (0% activity) controls. Normalized data was analyzed using a three or four parameter dose response curve to determine IC50 for each compound and are shown in Table B. Control reference inhibitors were included on each plate.

T1 sequence (Q9NYV4 whole entry): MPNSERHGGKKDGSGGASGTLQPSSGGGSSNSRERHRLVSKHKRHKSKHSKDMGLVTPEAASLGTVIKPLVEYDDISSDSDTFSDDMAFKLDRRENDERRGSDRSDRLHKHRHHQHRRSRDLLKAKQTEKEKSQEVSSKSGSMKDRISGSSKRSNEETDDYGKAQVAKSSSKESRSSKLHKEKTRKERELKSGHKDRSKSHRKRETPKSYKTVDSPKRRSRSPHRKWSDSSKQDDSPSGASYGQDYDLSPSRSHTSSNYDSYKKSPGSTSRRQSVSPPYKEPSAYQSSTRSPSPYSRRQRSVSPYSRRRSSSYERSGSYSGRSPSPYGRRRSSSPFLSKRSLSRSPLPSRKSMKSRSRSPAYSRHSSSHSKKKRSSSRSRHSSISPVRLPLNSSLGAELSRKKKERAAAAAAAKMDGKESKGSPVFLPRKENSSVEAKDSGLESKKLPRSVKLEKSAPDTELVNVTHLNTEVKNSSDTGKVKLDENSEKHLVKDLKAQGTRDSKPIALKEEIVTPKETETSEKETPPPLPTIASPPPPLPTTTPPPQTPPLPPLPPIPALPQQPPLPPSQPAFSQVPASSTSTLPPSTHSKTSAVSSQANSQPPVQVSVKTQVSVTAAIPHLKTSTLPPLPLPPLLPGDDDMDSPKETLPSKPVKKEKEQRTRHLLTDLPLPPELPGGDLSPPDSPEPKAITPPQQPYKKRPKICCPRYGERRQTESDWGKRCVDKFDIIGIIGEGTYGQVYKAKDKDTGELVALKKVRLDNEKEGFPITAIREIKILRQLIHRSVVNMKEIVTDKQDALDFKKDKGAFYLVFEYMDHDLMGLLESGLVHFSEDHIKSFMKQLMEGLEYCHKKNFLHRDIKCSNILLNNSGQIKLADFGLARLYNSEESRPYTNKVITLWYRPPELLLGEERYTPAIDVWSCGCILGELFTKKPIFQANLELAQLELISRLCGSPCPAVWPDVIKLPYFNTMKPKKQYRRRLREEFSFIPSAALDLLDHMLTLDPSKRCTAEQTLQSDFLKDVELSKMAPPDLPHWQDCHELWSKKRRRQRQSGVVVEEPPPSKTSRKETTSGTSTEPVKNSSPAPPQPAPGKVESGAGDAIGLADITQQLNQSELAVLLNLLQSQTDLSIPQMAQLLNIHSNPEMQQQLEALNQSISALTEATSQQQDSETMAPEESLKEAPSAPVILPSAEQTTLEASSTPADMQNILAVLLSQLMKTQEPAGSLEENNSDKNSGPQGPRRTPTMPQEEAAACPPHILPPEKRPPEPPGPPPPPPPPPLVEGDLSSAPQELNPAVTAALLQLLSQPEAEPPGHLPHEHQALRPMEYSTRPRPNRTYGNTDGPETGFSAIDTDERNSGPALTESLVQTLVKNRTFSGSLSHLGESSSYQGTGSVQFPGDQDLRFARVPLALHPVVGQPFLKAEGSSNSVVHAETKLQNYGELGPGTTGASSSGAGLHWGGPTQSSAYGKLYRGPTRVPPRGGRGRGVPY
T1 sequence (O75909 whole entry partner): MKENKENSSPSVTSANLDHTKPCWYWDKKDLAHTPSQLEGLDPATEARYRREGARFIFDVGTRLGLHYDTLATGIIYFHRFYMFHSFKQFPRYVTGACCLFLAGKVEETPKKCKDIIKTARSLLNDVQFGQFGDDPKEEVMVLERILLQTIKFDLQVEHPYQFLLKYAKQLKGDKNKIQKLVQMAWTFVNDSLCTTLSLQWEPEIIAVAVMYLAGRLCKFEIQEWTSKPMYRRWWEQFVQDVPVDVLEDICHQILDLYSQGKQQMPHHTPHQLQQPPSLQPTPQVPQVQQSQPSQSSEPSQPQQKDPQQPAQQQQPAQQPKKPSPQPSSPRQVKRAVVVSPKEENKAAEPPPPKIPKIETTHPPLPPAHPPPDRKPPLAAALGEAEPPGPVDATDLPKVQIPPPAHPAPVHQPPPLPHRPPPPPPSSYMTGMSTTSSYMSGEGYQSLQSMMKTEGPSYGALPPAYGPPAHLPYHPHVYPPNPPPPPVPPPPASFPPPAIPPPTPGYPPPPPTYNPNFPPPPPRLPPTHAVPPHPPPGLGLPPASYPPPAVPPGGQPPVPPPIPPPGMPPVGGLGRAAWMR

| IC50 | Structure (SMILES) |
| --- | --- |
| 50 to 500 nM | C=CC(=O)N1C[C@@H]2C[C@H]1CN2c1nccn2c(N3C[C@H](F)C[C@@H](Nc4ncc(C(F)(F)F)cn4)C3)ncc12 [Example 107, 1-((1S,4S)-5-(3-((3R,5R)-3-Fluoro-5-((5-(trifluoromethyl)pyrimidin-2-yl)amino)piperidin-1-yl)imidazo[1,5-a]pyrazin-8-yl)-2,5-diazabicyclo[2.2.1]heptan-2-yl)prop-2-en-1-one] |
| < 50 nM | C=CC(=O)Nc1c(C(C)C)cc2c(nc(N3CCC[C@@H](Nc4ncc(C(F)(F)F)cn4)C3)n2C)c1C [Example 155, (R)—N-(6-Isopropyl-1,4-dimethyl-2-(3-((5-(trifluoromethyl)pyrimidin-2-yl)amino)piperidin-1-yl)-1H-benzo[d]imidazol-5-yl)acrylamide] |
| < 50 nM | C=CC(=O)Nc1ccc2c(nc(N3CCC[C@@H](Nc4ncc(C(F)(F)F)cn4)C3)n2C)c1C [Example 156, (R)—N-(1,4-Dimethyl-2-(3-((5-(trifluoromethyl)pyrimidin-2-yl)amino)piperidin-1-yl)-1H-benzo[d]imidazol-5-yl)acrylamide] |
| < 50 nM | C=CC(=O)Nc1cc2nc(N3CCC[C@@H](Nc4ncc(C(F)(F)F)cn4)C3)n(C)c2cc1C1CC1 [Example 150, (R)—N-(6-Cyclopropyl-1-methyl-2-(3-((5-(trifluoromethyl)pyrimidin-2-yl)amino)piperidin-1-yl)-1H-benzo[d]imidazol-5-yl)acrylamide] |
| < 50 nM | C=CC(=O)N1CCC12CN(c1nccn3c(N4C[C@H](F)C[C@@H](Nc5ncc(C(F)(F)F)cn5)C4)ncc13)C2 [Example 105, 1-(6-(3-((3R,5R)-3-Fluoro-5-((5-(trifluoromethyl)pyrimidin-2-yl)amino)piperidin-1-yl)imidazo[1,5-a]pyrazin-8-yl)-1,6-diazaspiro[3.3]heptan-1-yl)prop-2-en-1-one] |
| 50 to 500 nM | C=CC(=O)Nc1cc2nc(N3C[C@H](O)C[C@@H](Nc4ncc(C#N)cn4)C3)n(C)c2cc1C [Example 147, N-(2-((3R,5R)-3-((5-Cyanopyrimidin-2-yl)amino)-5-hydroxypiperidin-1-yl)-1,6-dimethyl-1H-benzo[d]imidazol-5-yl)acrylamide] |
| > 500 nM | C=CC(=O)Nc1c(C)cc2c(nc(N3C[C@H](F)C[C@@H](Nc4ncc(C(F)(F)F)cn4)C3)n2C)c1C [Example 144, N-(2-((3R,5R)-3-Fluoro-5-((5-(trifluoromethyl)pyrimidin-2-yl)amino)piperidin-1-yl)-1,4,6-trimethyl-1H-benzo[d]imidazol-5-yl)acrylamide] |
| < 50 nM | Cc1cc2c(cc1NC(=O)C#CCO)nc(N1C[C@H](F)C[C@@H](Nc3ncc(C(F)(F)F)cn3)C1)n2C [Example 115, N-(2-((3R,5R)-3-Fluoro-5-((5-(trifluoromethyl)pyrimidin-2-yl)amino)piperidin-1-yl)-1,6-dimethyl-1H-benzo[d]imidazol-5-yl)-4-hydroxybut-2-ynamide] |
| < 50 nM | C=CC(=O)Nc1ccc2c(c1)nc(N1CCC[C@@H](Nc3ncc(C#N)c(N4CC[C@@H](N(C)C)C4)n3)C1)n2C [Example 142, N-(2-((R)-3-((5-cyano-4-((R)-3-(dimethylamino)pyrrolidin-1-yl)pyrimidin-2-yl)amino)piperidin-1-yl)-1-methyl-1H-benzo[d]imidazol-5-yl)acrylamide] |
| < 50 nM | C=CC(=O)Nc1ccc2c(c1)nc(N1CCC[C@@H](Nc3ncc(C#N)s3)C1)n2C [Example 129, (R)—N-(2-(3-((5-Cyanothiazol-2-yl)amino)piperidin-1-yl)-1-methyl-1H-benzo[d]imidazol-5-yl)acrylamide] |
| > 500 nM | Cc1cc2c(cc1NC(=O)/C=C\CN(C)C)nc(N1C[C@H](F)C[C@@H](Nc3ncc(C(F)(F)F)cn3)C1)n2C [Example 119, (Z)-4-(Dimethylamino)-N-(2-((3R,5R)-3-fluoro-5-((5-(trifluoromethyl)pyrimidin-2-yl)amino)piperidin-1-yl)-1,6-dimethyl-1H-benzo[d]imidazol-5-yl)but-2-enamide] |
| < 50 nM | [2H]C([2H])([2H])c1cc2c(cc1NC(=O)C=C)nc(N1C[C@H](F)C[C@@H](Nc3ncc(C(F)(F)F)cn3)C1)n2C [Example 135, N-(2-((3R,5R)-3-Fluoro-5-((5-(trifluoromethyl)pyrimidin-2-yl)amino)piperidin-1-yl)-1-methyl-6-(methyl-d3)-1H-benzo[d]imidazol-5-yl)acrylamide] |

Further lines, the compound ahead of its results:

| Structure (SMILES) | IC50 |
| --- | --- |
| C=CC(=O)Nc1cc2nc(N3C[C@H](F)C[C@@H](Nc4ccc(C(F)(F)F)cn4)C3)n(C)c2cc1C [Example 159] | 50 to 500 nM |
| C=CC(=O)N1CCCCC1c1nccn2c(N3CCC[C@@H](Nc4ncc(C(F)(F)F)cn4)C3)ncc12 (stereo partly drawn) [Example 108, 1-(2-(3-((R)-3-((5-(Trifluoromethyl)pyrimidin-2-yl)amino)piperidin-1-yl)imidazo[1,5-a]pyrazin-8-yl)piperidin-1-yl)prop-2-en-1-one] | 50 to 500 nM |
| C=CC(=O)Nc1ccc2c(c1)nc(N1CC[C@@H](F)[C@@H](Nc3ncc(C#N)cn3)C1)n2C [Example 125, N-(2-((3S,4R)-3-((5-Cyanopyrimidin-2-yl)amino)-4-fluoropiperidin-1-yl)-1-methyl-1H-benzo[d]imidazol-5-yl)acrylamide] | < 50 nM |
| C=CC(=O)Nc1cc2nc(N3CCC[C@@H](Nc4ncc(C(F)(F)F)cn4)C3)n(C)c2cc1OC [Example 166, (R)—N-(6-Methoxy-1-methyl-2-(3-((5-(trifluoromethyl)pyrimidin-2-yl)amino)piperidin-1-yl)-1H-benzo[d]imidazol-5-yl)acrylamide] | < 50 nM |
| C=CC(=O)Nc1ccc2c(c1)nc(N1CCC[C@@H](Nc3ncc(C#N)cn3)C1)n2C [Example 143, (R)—N-(2-(3-((5-Cyanopyrimidin-2-yl)amino)piperidin-1-yl)-1-methyl-1H-benzo[d]imidazol-5-yl)acrylamide] | < 50 nM |
| C=CC(=O)Nc1cc2nc(N3C[C@H](F)C[C@@H](Nc4ncc(C#N)c(NC)n4)C3)n(C)c2cc1C [Example 158, N-(2-((3R,5R)-3-((5-Cyano-4-(methylamino)pyrimidin-2-yl)amino)-5-fluoropiperidin-1-yl)-1,6-dimethyl-1H-benzo[d]imidazol-5-yl)acrylamide] | < 50 nM |
| C=CC(=O)Nc1cc2nc(N3C[C@H](F)C[C@@H](Nc4ncc(C(F)(F)F)cn4)C3)n(C)c2cc1CC [Example 131, N-(6-Ethyl-2-((3R,5R)-3-fluoro-5-((5-(trifluoromethyl)pyrimidin-2-yl)amino)piperidin-1-yl)-1-methyl-1H-benzo[d]imidazol-5-yl)acrylamide] | 50 to 500 nM |
| C=CC(=O)N1CCCCC1c1ccc2c(c1)nc(N1C[C@H](O)C[C@@H](Nc3ncc(C(F)(F)F)cn3)C1)n2C (stereo partly drawn) [Example 87, 1-(2-(2-((3R,5R)-3-Hydroxy-5-((5-(trifluoromethyl)pyrimidin-2-yl)amino)piperidin-1-yl)-1-methyl-1H-benzo[d]imidazol-5-yl)piperidin-1-yl)prop-2-en-1-one] | 50 to 500 nM |
| C=CC(=O)Nc1cc2nc(N3C[C@H](F)C[C@@H](Nc4ncc(C#N)s4)C3)n(C)c2cc1C [Example 162, N-(2-((3R,5R)-3-((5-Cyanothiazol-2-yl)amino)-5-fluoropiperidin-1-yl)-1,6-dimethyl-1H-benzo[d]imidazol-5-yl)acrylamide] | 50 to 500 nM |
| C=CC(=O)Nc1cc2nc(N3C[C@H](F)C[C@@H](Nc4ncc(C(F)(F)F)cn4)C3)n(C)c2cc1COC [Example 133, N-(2-((3R,5R)-3-Fluoro-5-((5-(trifluoromethyl)pyrimidin-2-yl)amino)piperidin-1-yl)-6-(methoxymethyl)-1-methyl-1H-benzo[d]imidazol-5-yl)acrylamide] | < 50 nM |
| C=CC(=O)Nc1cc2nc(N3C[C@H](F)C[C@@H](Nc4ncc(C(F)(F)F)cn4)C3)n(C)c2cc1N1CCCC1 [Example 136, N-(2-((3R,5R)-3-Fluoro-5-((5-(trifluoromethyl)pyrimidin-2-yl)amino)piperidin-1-yl)-1-methyl-6-(pyrrolidin-1-yl)-1H-benzo[d]imidazol-5-yl)acrylamide] | < 50 nM |
| C=CC(=O)N1CCN(c2ccc3c(c2)nc(N2CCC[C@@H](Nc4ncc(C(F)(F)F)cn4)C2)n3C)CC1 [Example 128, (R)-1-(4-(1-Methyl-2-(3-((5-(trifluoromethyl)pyrimidin-2-yl)amino)piperidin-1-yl)-1H-benzo[d]imidazol-5-yl)piperazin-1-yl)prop-2-en-1-one] | 50 to 500 nM |
